According to patent publication US20110092540A1, “SUBSTITUTED N-PHENYL-2,3-DIHYDROIMIDAZO[2,1-B]THIAZOLE-5-SULFONAMIDE DERIVATIVES AS 5-HT6 LIGANDS” (priority 2008, published 2011):
Counter-ions that a name gives are not always drawn.

What was measured:
[1] = biological target: T1, 5HT6-human recombinant receptor (Homo sapiens, UniProt P50406); assay: Binding to serotonin receptor 5HT6 ([3H]-LSD radioligand displacement); parameters: purchased Receptor Biology; host or cells: HEK-293 cells (membranes); conditions: membranes of HEK-293 cells expressing 5HT6-human recombinant receptor; [3H]-LSD 2.7 nM; 60 min, 37° C.
Procedure: Binding to Serotonin Receptor 5HT6
Cell membranes of HEK-293 cells expressing the 5HT6-human recombinant receptor were supplied by Receptor Biology. In said membranes the receptor concentration is 2.18 pmol/mg protein and the protein concentration is 9.17 mg/ml. The experimental protocol follows the method of B. L. Roth et al. [B. L. Roth et al., The Journal of Pharmacology and Experimental Therapeutics, 1994, 268. 1403] with the following slight changes. The respective part of the literature description is hereby incorporated by reference and forms part of the disclosure.
The commercial membrane is diluted (1:40 dilution) with the binding buffer: 50 mM Tris-HCl, 10 mM MgCl2, 0.5 mM EDTA (pH 7.4). The radioligand used is [^3H]-LSD at a concentration of 2.7 nM with a final volume of 200 μl. incubation is initiated by adding 100 μl of membrane suspension, (≈22.9 μg membrane protein), and is prolonged for 60 minutes at a temperature of 37° C. The incubation is ended by fast filtration in a Brandel Cell Harvester through fiber glass filters made by Schleicher & Schuell GF 3362 pretreated with a solution of polyethylenimine at 0.5%. The filters are washed three times with three milliliters of buffer Tris-HCl 50 mM pH 7.4. The filters are transferred to flasks and 5 ml of Ecoscint H liquid scintillation cocktail are added to each flask. The flasks are allowed to reach equilibrium for several hours before counting with a Wallac Winspectral 1414 scintillation counter. Non-specific binding is determined in the presence of 100 μM of serotonin. Tests were made in triplicate. The inhibition constants (Ki, nM) were calculated by non-linear regression analysis using the program EBDA/LIGAND described in Munson and Rodbard, Analytical Biochemistry, 1980, 107, 220, which is hereby incorporated by reference and forms part of the disclosure.

[2] = biological target: T1, 5HT6-human recombinant receptor; conditions: in words; Fisas, A. et al., Brit. J. Pharm. 2006; cited from earlier work
[3] = in words; Fisas, A. et al., Brit. J. Pharm. 2006; cited from earlier work

T1 sequence (P50406 whole entry): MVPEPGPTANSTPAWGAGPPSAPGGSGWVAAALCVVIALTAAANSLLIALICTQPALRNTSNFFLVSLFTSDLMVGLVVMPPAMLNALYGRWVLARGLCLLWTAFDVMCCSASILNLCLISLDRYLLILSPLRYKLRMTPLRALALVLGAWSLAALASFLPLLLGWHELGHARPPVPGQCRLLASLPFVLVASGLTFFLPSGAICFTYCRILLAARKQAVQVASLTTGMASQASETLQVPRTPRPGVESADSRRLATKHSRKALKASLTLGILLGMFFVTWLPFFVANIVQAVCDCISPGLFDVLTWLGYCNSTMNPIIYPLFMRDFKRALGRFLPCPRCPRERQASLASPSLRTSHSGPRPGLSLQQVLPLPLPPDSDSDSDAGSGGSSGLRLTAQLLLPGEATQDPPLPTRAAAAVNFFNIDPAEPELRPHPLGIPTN

SMILES	Ki [1]	binding for the recombinant human 5-HT6 receptor [2]	body weight [3]	food intake [3]
CN(C)CCc1c[nH]c2ccc(NS(=O)(=O)c3ccc4c(Cl)cccc4c3)cc12 [Compound E-6837, 5-chloro-N[3-(2-(dimethylamino)ethyl)-1H-indol-5-yl] naphthalene-2-sulphonamide]	–	selective and high affinity binding	significant body weight loss	reduction in the food intake
CN(C)CCc1c[nH]c2ccc(NS(=O)(=O)c3c(Cl)nc4n3CCS4)cc12 [Compound 3, 6-Chloro-2,3-dihydro-imidazo[2,1-b] thiazole-5-sulfonic acid [3-(2-dimethylamino-ethyl)-1H-indol-5-yl]-amide hydrochloride]	0.0169 µM	–	–	–

Now from value to compound, other results behind:

Ki [1]	SMILES	binding for the recombinant human 5-HT6 receptor [2]	body weight [3]	food intake [3]
0.0054 µM	CC(=O)N1CCc2cc(NS(=O)(=O)c3c(Cl)nc4n3CCS4)ccc21 [Compound 4, 6-Chloro-2,3-dihydro-imidazo[2,1-b] thiazole-5-sulfonic acid (1-acetyl-2,3-dihydro-1H-indol-5-yl)-amide]	–	–	–
0.0084 µM	O=S(=O)(Nc1ccc2c(c1)CCNC2)c1c(Cl)nc2n1CCS2 [Compound 1, 6-Chloro-2,3-dihydro-imidazo[2,1-b] thiazole-5-sulfonic acid (1,2,3,4-tetrahydro-isoquinolin-6-yl)-amide hydrochloride]	–	–	–
0.046 µM	O=C1CCc2ccc(NS(=O)(=O)c3c(Cl)nc4n3CCS4)cc21 [Compound 10, 6-Chloro-2,3-dihydro-imidazo[2,1-b] thiazole-5-sulfonic acid (3-oxo-indan-5-yl)-amide]	–	–	–
